Experimental data reported in US20100267682A1, “CORTICOSTEROIDS TO TREAT EPOTHILONE OR EPOTHILONE DERIVATIVE INDUCED DIARRHEA” (NOVARTIS AG, priority 2007, published 2010).
Read-outs that look alike come from different tables or passages of the source. Marks after values point to notes of the source that are not given here.

How the values were obtained:
[1] = Total PAT exposure (AUC) in blood, tissues and tumor of BDix rats; type: in vivo, rat; settings: for AUC24-336 hr (total PAT exposure): Example 4, mean ± SD, n = 3, PAT 1.5 mg/kg i.v. day 0, G2 Predn-vehicle or G4 Predn 7 mg/kg p.o. 5 days (D-1)
Protocol: G4 received prednisolone (Predn) p.o. at 7 mg/kg for 5 consecutive days while G2 received Predn-vehicle only for 5 days.

BDix rats = test: Patupilone-induced diarrhea scoring in BDix rats (grade 0-3, AUC days 3-7, days > G1); settings: for Diarrhoea reduction (T/C) >G1D3-D6 / Diarrhoea reduction (T/C) AUCD3-D7: PAT 1.5 mg/kg i.v. D0, vs patupilone alone; for Diarrh: Days > G1: BDix rats with s.c. A15 glioma
Protocol: They are idendified by ear markings and kept in groups of 4 under normal conditions with access to food and water as libitum. Tumors: Rat glioma cells, A15 (aks 1a2r) are obtained from ECACC. […] Tumors are induced by concentrating 5×10^5 cells in 50 μl and injecting s.c. in the flank of the rats. […] Generally experiments begin when the tumors are >150 mm^3. Patupilone: Patupilone is weighed and dissolved in a vehicle of 30% PEG-300 and 70% normal saline to a final concentration of 1 mg/ml. Patupilone is injected i.v. in the tail vein as a bolus of 2-3 seconds at a dose of 1.5 mg/kg once. […] The suspension is sonicated for 30 min to achieve a milky suspension for oral administration (5 mL/kg).
Although prednisolone is administered orally daily, the dose and number of days of treatment are different in each experiment. The doses are 1, 3, 7 or 10 mg/kg which is roughly equivalent to 6, 17, 40 and 60 mg/m^2, respectively. When prednisolone and patupilone treatment are on the same day, prednisolone is administered 2-4 hours after treatment with patupilone.
Diarrhea: Diarrhea is monitored daily from day 3 post injection fo patupilone which is on day 0. Diarrhea is scored as follows:
Grade 1: soft but formed stool
Grade 2: soft unformed stool
Thus, each rat on each day of diarrhea (5 days from day […]) is graded 0-3 which allows a semi-quantitative analysis of the effects of different treatment. Two different abalytical methods are applied using a) area under the curve (AUCdays3-7) calculated using the trapezoidal rule as applied by Graphpad Prism (v. 4.0 for Windows) and b) the numbere of days in which diarrhea is graded >1. It is believed that the second approach is a more realistic comparison to the clinic since as described above G≦1 is not really diarrhea, and in the clinic, the major issue is avoiding severe diarrhea, i.e. clinical grades of ≧2.
(§1) After 10 days the rats are treated on day-0 once with patupilone (PAT) at 1.5 mg/kg i.v. bolus (G2, G4-G7) or PAT-vehicle (G1 & G3). All rats treated with prednisolone (Predn) received the drug p.o. at 7 mg/kg for 5 consecutive days (except G7 for 3 days only) either 1-day before (G4), on the same day (G7), 1-day after patupilone (G6) or 3-days after patupilone (G5).
Rats receive 7 mg/kg prednisolone (Predn) or the Predn-vehicle p.o. for 5 consecutive days (except G3 for 3 days) starting either on Day-0 (G1-G3) or after 24 hr (D+1) or 24 hr prior to PAT (D−1).

[2] = Protocol: They are idendified by ear markings and kept in groups of 4 under normal conditions with access to food and water as libitum. Tumors: Rat glioma cells, A15 (aks 1a2r) are obtained from ECACC. […] Tumors are induced by concentrating 5×10^5 cells in 50 μl and injecting s.c. in the flank of the rats. […] Generally experiments begin when the tumors are >150 mm^3. Patupilone: Patupilone is weighed and dissolved in a vehicle of 30% PEG-300 and 70% normal saline to a final concentration of 1 mg/ml. Patupilone is injected i.v. in the tail vein as a bolus of 2-3 seconds at a dose of 1.5 mg/kg once.
Efficacy and Tolerability: Tumor volume (Tvol) is quantified by change in tumor volume (endpoint vs. starting value in mm^3). As the T/CTVol, i.e. [ΔTVOldrug/ΔTVolvehicle]. The body weight of the rats is measured three times per week.
as §1, with “(G5). […]” for “(G5).”

Rat glioma cells, A15 = test: BDix rat tumor model: s.c. A15 glioma tumour response; type: in vivo; settings: for T/C Day-14: ΔTVol drug/ΔTVol vehicle
From the text: As the T/CTVol, i.e. [ΔTVOldrug/ΔTVolvehicle].

[3] = tested on: HRPC (hormone-refractory prostate cancer) patients; test: Clinical trial in HRPC patients: patupilone-induced diarrhea; type: in vivo, human; settings: 10 mg (ca. 5.5 mg/m^2) prednisone per day
Protocol: HRPC (hormone-refractory prostate cancer) patients in a clinical trial are getting 10 mg (ca. 5.5 mg/m^2) prednisone per day.

[4] = Example 1, Predn 1 mg/kg (6 mg/m^2) p.o. 7-days from D0
[5] = Example 1, Predn 3 mg/kg (17 mg/m^2) p.o. 7-days from D0
[6] = Example 1, Predn 10 mg/kg (60 mg/m^2) p.o. 7-days from D0
[7] = Example 2, Predn 3 mg/kg (17 mg/m^2) p.o. 7-days from D0
[8] = Example 2, Predn 10 mg/kg (60 mg/m^2) p.o. 7-days from DO
[9] = Example 3, Predn 7 mg/kg (40 mg/m^2) p.o. 3-days from D0
[10] = Example 3, Predn 7 mg/kg (40 mg/m^2) p.o. 5-days from D+1
[11] = Example 3, Predn 7 mg/kg (40 mg/m^2) p.o. 5-days from D−1
[12] = Example 3, Predn 7 mg/kg (40 mg/m^2) p.o. 7-days from D+3
[13] = Example 3 G3, Predn 7 mg/kg p.o. 5 days + PAT vehicle
[14] = Example 5, Predn 7 mg/kg (40 mg/m^2) p.o. 3-days from D0
[15] = Example 5, Predn 7 mg/kg (40 mg/m^2) p.o. 5-days from D0
[16] = Example 5, Predn 7 mg/kg (40 mg/m^2) p.o. 5-days from D+1
[17] = Example 5, Predn 7 mg/kg (40 mg/m^2) p.o. 5-days from D−1
[18] = Example 3 G3, BDix rats with s.c. A15 glioma, Predn 7 mg/kg p.o. 5 days + PAT vehicle
[19] = Example 1, BDix rats, PAT 1.5 mg/kg i.v. once + Predn vehicle p.o. 7 days
[20] = Example 3 G2, PAT 1.5 mg/kg i.v. day 0 + Predn vehicle
[21] = Example 5 G1, BDix rats, PAT 1.5 mg/kg i.v. Day 0 + Veh-Predn p.o. 5 days (D0)
[22] = Example 2, BDix rats with s.c. A15 glioma, PAT 1.5 mg/kg i.v. once + Predn vehicle p.o. 7 days
[23] = Example 3 G2, BDix rats with s.c. A15 glioma, PAT 1.5 mg/kg i.v. day 0 + Predn vehicle

## C[C@]12C=CC(=O)C=C1CC[C@@H]1[C@@H]2[C@@H](O)C[C@@]2(C)[C@H]1CC[C@]2(O)C(=O)CO [Predn, prednisolone]
[1]; BDix rats, summary
  Effect of prednisolone on patupilone exposure: no evidence that prednisolone interferred with significantly with patupilone exposure
BDix rats; BDix rats, summary of Examples 1-6
  Effect on diarrhea caused by an efficacious dose of patupilone: able to reproducibly reduce diarrhea
BDix rats; [4]
  Diarrhoea reduction (T/C) >G1D3-D6: 0.81
  Diarrhoea reduction (T/C) AUCD3-D7: 0.85
BDix rats; [5]
  Diarrhoea reduction (T/C) >G1D3-D6: 0.13
  Diarrhoea reduction (T/C) AUCD3-D7: 0.30
BDix rats; [6]
  Diarrhoea reduction (T/C) >G1D3-D6: 0.06
  Diarrhoea reduction (T/C) AUCD3-D7: 0.20
BDix rats; [7]
  Diarrhoea reduction (T/C) >G1D3-D6: 0
  Diarrhoea reduction (T/C) AUCD3-D7: 0.14
BDix rats; [8]
  Diarrhoea reduction (T/C) >G1D3-D6: 0
  Diarrhoea reduction (T/C) AUCD3-D7: 0.01
BDix rats; [9]
  Diarrhoea reduction (T/C) >G1D3-D6: 0.57
  Diarrhoea reduction (T/C) AUCD3-D7: 0.60
BDix rats; [10]
  Diarrhoea reduction (T/C) >G1D3-D6: 0.52
  Diarrhoea reduction (T/C) AUCD3-D7: 0.57
BDix rats; [11]
  Diarrhoea reduction (T/C) >G1D3-D6: 0.65
  Diarrhoea reduction (T/C) AUCD3-D7: 0.61
BDix rats; [12]
  Diarrhoea reduction (T/C) >G1D3-D6: 0.57
  Diarrhoea reduction (T/C) AUCD3-D7: 0.75
BDix rats; [13]
  Diarrh: Days > G1: 0 days
BDix rats; [14]
  Diarrhoea reduction (T/C) >G1D3-D6: 0.08
  Diarrhoea reduction (T/C) AUCD3-D7: 0.11
BDix rats; [15]
  Diarrhoea reduction (T/C) >G1D3-D6: 0
  Diarrhoea reduction (T/C) AUCD3-D7: 0.03
BDix rats; [16]
  Diarrhoea reduction (T/C) >G1D3-D6: 0
  Diarrhoea reduction (T/C) AUCD3-D7: 0.17
BDix rats; [17]
  Diarrhoea reduction (T/C) >G1D3-D6: 0
  Diarrhoea reduction (T/C) AUCD3-D7: 0.18
[2]; [18]
  Survival: 8/8
Rat glioma cells, A15; [18]
  ΔTVol Day-14: 728 ± 93
Rat glioma cells, A15; [13]
  T/C Day-14: 0.93

## C/C(=C\c1csc(C)n1)[C@@H]1C[C@@H]2O[C@]2(C)CCC[C@H](C)[C@H](O)[C@@H](C)C(=O)C(C)(C)[C@@H](O)CC(=O)O1 [PAT, epothilone B]
[1]; Blood
  AUC24-336 hr (total PAT exposure): 1891 ± 344 ng/h/mL
[1]; Brain
  AUC24-336 hr (total PAT exposure): 64948 ± 6237 ng/h/mL
[1]; Caecum
  AUC24-336 hr (total PAT exposure): 53911 ± 10512 ng/h/mL
[1]; Jejunum
  AUC24-336 hr (total PAT exposure): 57045 ± 3988 ng/h/mL
[1]; Liver
  AUC24-336 hr (total PAT exposure): 56278 ± 9988 ng/h/mL
[1]; Tumor
  AUC24-336 hr (total PAT exposure): 142437 ± 36429 ng/h/mL
BDix rats; [19]
  Diarrhoea: Days > G1: 2.7 ± 0.2 days
BDix rats; Example 2, PAT 1.5 mg/kg i.v. once + Predn vehicle p.o. 7 days
  Diarrh: Days > G1: 1.7 ± 0.3 days
BDix rats; [20]
  Diarrh: Days > G1: 2.9 ± 0.3 days
BDix rats; [21]
  Diarrhoea: Days > G1: 1.5 ± 0.3 days
[2]; [19]
  BW (g) Day-7: 150 ± 3 g
  Survival: 6/6
  Δ% BW Day-7: −16.3 ± 1.3%
  ΔBW (g) Day-7: -29.5 ± 3.1 g
[2]; [22]
  BW (g) Day-6: 186 ± 3 g
  Survival: 6/6
  Δ% BW Day-13: −4.1 ± 2.1%
[2]; [23]
  BW (g) Day-14: 179 ± 4 g
  Survival: 8/8
  Δ% BW Day-7: −18.6 ± 1.3 %
  Δ% BW Day-14: −4.4 ± 1.8 %
[2]; [21]
  BW (g) Day-7: 163 ± 3 g
  Survival: 8/8
  Δ% BW Day-7: −12.0 ± 1.2%
Rat glioma cells, A15; [22]
  Tumour Wt: 0.83 ± 0.17 g
Rat glioma cells, A15; [23]
  ΔTVol Day-14: 277 ± 37
Rat glioma cells, A15; [20]
  T/C Day-14: 0.35*

## C[C@]12C=CC(=O)C=C1CC[C@@H]1[C@@H]2C(=O)C[C@@]2(C)[C@H]1CC[C@]2(O)C(=O)CO [prednisone]
[3]
  Effect on epothilone B (patupilone)-induced diarrhea: does not seem to have an effect
